Data taken from US10941136B2, “Quinazoline derivative or its salt and pharmaceutical composition comprising the same” (YUHAN CORPORATION, priority 2016, dated 2021).

Legend:
Type in all cases: biochemical
PI3Kδ (p110δ/p85α)(h) = biological target: T1, PI3Kδ (p110δ/p85α)(h) (Homo sapiens, UniProt O00329); experiment: PI3K-HTRF in vitro enzyme assay, PI3Kδ; conditions: enzyme 0.1 μg/ml
T1 construct: purchased Upstate (Millipore Co, Billerica, Mass., USA) #14˜604

PI3Kα (p110α/p85α)(h) = biological target: T2, PI3Kα (p110α/p85α)(h) (Homo sapiens, UniProt P42336); experiment: PI3K-HTRF in vitro enzyme assay, PI3Kα; conditions: enzyme 0.1 μg/ml
T2 construct: purchased Upstate (Millipore Co) #14-602
T2 sequence (P42336 whole entry): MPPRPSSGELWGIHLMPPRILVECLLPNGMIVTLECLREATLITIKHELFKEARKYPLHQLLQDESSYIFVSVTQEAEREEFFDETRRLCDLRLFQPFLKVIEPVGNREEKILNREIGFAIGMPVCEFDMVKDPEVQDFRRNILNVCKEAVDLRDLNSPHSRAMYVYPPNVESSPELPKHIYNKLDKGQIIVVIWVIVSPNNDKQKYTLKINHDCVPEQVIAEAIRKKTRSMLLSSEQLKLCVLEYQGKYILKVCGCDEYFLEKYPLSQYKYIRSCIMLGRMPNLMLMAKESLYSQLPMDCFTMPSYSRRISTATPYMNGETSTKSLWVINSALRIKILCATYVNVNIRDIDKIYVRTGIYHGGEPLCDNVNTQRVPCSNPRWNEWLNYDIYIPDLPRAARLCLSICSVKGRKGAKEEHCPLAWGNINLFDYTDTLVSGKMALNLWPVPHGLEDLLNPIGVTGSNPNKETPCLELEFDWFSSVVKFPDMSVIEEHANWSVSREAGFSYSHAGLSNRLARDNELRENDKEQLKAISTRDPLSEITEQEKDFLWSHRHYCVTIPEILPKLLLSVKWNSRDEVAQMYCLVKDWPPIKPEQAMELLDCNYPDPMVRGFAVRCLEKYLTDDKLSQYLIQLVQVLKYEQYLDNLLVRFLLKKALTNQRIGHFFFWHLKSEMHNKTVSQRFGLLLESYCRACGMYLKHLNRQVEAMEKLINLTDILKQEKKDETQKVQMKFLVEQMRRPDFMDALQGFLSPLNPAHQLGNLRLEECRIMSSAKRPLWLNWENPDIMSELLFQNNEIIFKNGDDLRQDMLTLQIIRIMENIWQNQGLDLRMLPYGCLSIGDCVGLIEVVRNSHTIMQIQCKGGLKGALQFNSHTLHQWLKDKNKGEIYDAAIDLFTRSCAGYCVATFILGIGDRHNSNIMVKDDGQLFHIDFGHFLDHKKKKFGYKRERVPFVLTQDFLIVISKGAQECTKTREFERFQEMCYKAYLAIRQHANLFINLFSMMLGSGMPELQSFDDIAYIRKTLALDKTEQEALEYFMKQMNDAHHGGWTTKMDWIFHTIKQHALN
T2 sequence (P27986 whole entry partner): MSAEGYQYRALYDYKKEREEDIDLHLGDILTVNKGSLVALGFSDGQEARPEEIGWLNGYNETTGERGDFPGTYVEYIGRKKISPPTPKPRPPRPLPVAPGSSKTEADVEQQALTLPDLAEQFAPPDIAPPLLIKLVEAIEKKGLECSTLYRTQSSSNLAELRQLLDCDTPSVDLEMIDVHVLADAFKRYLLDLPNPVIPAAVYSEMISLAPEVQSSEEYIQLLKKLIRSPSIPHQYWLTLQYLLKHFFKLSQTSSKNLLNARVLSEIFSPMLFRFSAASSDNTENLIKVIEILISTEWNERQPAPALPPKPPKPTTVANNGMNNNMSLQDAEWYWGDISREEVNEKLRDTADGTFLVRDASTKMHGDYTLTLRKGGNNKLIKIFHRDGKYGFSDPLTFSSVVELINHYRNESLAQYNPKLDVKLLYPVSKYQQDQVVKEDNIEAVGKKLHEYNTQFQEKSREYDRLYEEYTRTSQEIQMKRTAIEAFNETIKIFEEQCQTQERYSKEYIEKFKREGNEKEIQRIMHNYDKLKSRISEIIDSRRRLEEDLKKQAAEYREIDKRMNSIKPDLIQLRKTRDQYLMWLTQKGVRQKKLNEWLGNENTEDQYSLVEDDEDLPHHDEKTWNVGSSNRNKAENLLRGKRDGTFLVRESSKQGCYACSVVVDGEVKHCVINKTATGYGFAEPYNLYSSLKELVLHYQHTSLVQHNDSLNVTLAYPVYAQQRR

PI3Kβ (p110β/p85α)(h) = biological target: T3, PI3Kβ (p110β/p85α)(h) (Homo sapiens, UniProt P42338); experiment: PI3K-HTRF in vitro enzyme assay, PI3Kβ; conditions: enzyme 0.4 μg/ml
T3 construct: purchased Upstate (Millipore Co) #14-603
T3 sequence (P42338 whole entry): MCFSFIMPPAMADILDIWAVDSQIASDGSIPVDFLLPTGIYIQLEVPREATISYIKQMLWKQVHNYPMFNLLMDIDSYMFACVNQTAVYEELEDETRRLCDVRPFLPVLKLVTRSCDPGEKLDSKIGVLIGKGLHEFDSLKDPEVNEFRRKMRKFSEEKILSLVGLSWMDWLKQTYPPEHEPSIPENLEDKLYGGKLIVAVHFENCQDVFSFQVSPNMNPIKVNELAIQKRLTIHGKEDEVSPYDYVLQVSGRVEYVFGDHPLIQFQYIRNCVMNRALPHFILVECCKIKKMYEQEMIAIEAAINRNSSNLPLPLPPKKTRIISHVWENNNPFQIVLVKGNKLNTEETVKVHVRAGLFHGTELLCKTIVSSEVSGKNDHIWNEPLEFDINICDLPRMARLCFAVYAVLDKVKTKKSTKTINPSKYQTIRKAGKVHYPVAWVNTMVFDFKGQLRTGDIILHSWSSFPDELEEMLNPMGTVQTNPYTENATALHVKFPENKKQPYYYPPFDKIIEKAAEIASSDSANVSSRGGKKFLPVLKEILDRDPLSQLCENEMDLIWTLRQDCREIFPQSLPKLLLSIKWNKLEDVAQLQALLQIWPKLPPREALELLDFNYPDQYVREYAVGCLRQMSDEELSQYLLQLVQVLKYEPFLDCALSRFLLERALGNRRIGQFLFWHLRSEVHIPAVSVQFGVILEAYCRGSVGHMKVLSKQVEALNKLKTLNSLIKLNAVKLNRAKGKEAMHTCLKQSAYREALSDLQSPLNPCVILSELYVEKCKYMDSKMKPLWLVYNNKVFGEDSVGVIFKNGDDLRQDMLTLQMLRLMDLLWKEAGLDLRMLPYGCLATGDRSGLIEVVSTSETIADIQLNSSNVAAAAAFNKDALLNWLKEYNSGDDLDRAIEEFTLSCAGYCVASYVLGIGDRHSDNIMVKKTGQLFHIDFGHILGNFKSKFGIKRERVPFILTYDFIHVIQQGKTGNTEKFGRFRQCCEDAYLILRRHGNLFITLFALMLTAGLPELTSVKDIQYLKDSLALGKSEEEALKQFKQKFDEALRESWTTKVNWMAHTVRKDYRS
T3 sequence (P27986 whole entry partner): as the sequence (P27986 whole entry partner) above
Experimental: The compounds of the present invention were tested for the activity of phosphatidylinositol 3-kinase delta (PI3K) by using a PI3K enzyme-homogeneous time resolved fluorescence (PI3K-HTRF) kit, which is available under Upstate™ kit (Millipore Co, Billerica, Mass., USA). This kit system measures indirectly the amount of PIP3 produced via PI3K by detecting competitive inhibition of fluorescence complex formation.
There were used three kinds of buffer solutions, i.e., reaction buffer, stop solution, and detection solution. The reaction buffer was prepared by diluting Reaction Buffer (provided in Update™ kit) with distilled water 4 times and adding DTT to a concentration of 5 mM. The stop solution was prepared by combining STOP A and B Solutions (provided in Update™ kit) in a ratio of 3:1. The detection solution was prepared by combining Detection Solution A, B and C (provided in Update™ kit) in a ratio of 1:1:18. A substrate solution and an ATP solution were prepared by diluting the 1 mM PIP2 (phosphatidyl inositol 4,5 bi-phosphate) stock solution (provided in Update™ kit) and 10 mM ATP (Sigma-aldrich Co., St. Louis, Mo., USA) stock solution with the reaction buffer to concentrations of 20 μM and 40 μM, respectively. An enzyme solution was prepared by diluting PI3Kδ (#14˜604; Upstate™ kit) with the substrate solution to the concentration of 0.2 μg/ml (final reaction concentration: 0.1 μg/ml).
The test groups were prepared by dissolving each compound in 100% DMSO at 40× the final concentration and then diluting 10-fold with the reaction buffer. 5 μl of each diluted test group solution was transferred to a 384 well low flange white flat bottom microplate (#3572, Corning Life Sciences, Lowell, Mass., USA). We performed centrifuge (1 minute, 1000 rpm) and shaking for 2 minutes after every solution-adding step in this experiment. Next, 10 μl of the enzyme solution was added to each well. A mixed solution of the substrate solution (10 μl) plus 5 μl of the 100% DMSO diluted solution without test compound (i.e., 10% DMSO solution) was used as a negative control. And also, a mixed solution of enzyme solution (10 μl) plus 5 μl of the 100% DMSO diluted solution without test compound (i.e., 10% DMSO solution) was used as a positive control. This plate was pre-incubated for 10 minutes in a 25° C. incubator. After the pre-incubation, the phosphorylation reaction was induced by adding 5 μl of the ATP solution and the plate was incubated for 30 minutes in a 25° C. incubator. This enzyme reaction was stopped by 5 μl of the stop solution and then 5 μl of the detection solution was added thereto. To obtain enough fluorescence responses, the plate was incubated for 2 hours in a 25° C. incubator protected from light.
The time-resolved fluorescence resonance energy transfer (TR-FRET) rate was measured (emission wavelength: 665 nm, 620 nm, excitation wavelength: 313 nm) by using a Flexstation3 Micro plate reader (Molecular Devices, USA). TR-FRET Rate was calculated based on the Equation 1 and using these TR-FRET Rates, % inhibition rate of each compound was calculated based on the Equation 2. The IC50 values, i.e., the concentration of a test compound that inhibits 50% of PI3Kδ activity in vitro, are generated by Softmax program (Molecular Devices, USA). TR-FRET Rate=(Signal at 665 nm emission wavelength/Signal at 620 nm emission wavelength)×10000 <Equation 1> % Inhibition Rate=[(TR-FRET Rate of the test group−TR-FRET Rate of the positive control group)/(TR-FRET Rate of the negative control group−TR-FRET Rate of the positive control group)]×100 <Equation 2>
The compounds of the present invention were assayed for the activities of PI3K subtypes, i.e., PI3Kα, PI3Kβ and PI3Kγ, using the same procedures as in Experimental Example 1. […]

PI3Kγ (p120γ)(h) = biological target: T4, PI3Kγ (p120γ)(h) (Homo sapiens, UniProt P48736); experiment: PI3K-HTRF in vitro enzyme assay, PI3Kγ; conditions: enzyme 0.4 μg/ml
T4 construct: purchased Upstate (Millipore Co) #14-558
T4 sequence (P48736 whole entry): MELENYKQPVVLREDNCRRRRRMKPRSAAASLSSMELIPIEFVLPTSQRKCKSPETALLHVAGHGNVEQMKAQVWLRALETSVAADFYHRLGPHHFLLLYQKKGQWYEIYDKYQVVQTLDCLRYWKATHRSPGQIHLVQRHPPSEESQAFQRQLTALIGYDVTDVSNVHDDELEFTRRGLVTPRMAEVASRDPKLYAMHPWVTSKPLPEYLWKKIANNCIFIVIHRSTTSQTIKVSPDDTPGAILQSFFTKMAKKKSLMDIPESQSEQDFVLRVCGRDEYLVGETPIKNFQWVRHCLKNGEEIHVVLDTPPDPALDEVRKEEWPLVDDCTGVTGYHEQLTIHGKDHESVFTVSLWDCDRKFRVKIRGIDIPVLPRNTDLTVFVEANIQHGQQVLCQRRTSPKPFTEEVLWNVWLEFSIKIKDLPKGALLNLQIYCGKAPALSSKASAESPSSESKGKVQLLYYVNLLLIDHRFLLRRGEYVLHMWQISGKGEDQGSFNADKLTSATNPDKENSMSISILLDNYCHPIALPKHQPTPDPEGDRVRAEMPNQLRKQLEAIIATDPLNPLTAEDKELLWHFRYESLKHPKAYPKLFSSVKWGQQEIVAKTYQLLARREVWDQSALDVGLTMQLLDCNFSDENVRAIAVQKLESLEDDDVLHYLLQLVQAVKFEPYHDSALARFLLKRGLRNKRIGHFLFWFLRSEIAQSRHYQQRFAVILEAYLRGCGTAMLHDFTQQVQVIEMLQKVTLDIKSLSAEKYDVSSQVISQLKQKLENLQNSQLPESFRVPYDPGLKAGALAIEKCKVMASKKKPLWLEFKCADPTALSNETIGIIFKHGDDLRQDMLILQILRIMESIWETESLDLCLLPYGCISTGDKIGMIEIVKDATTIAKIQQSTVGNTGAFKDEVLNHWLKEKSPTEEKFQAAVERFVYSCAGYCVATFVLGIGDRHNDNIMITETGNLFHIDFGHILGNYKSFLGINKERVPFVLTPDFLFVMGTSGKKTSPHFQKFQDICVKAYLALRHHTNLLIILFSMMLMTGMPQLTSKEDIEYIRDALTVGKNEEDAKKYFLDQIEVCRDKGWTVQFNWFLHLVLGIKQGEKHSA

T1 sequence (O00329 whole entry): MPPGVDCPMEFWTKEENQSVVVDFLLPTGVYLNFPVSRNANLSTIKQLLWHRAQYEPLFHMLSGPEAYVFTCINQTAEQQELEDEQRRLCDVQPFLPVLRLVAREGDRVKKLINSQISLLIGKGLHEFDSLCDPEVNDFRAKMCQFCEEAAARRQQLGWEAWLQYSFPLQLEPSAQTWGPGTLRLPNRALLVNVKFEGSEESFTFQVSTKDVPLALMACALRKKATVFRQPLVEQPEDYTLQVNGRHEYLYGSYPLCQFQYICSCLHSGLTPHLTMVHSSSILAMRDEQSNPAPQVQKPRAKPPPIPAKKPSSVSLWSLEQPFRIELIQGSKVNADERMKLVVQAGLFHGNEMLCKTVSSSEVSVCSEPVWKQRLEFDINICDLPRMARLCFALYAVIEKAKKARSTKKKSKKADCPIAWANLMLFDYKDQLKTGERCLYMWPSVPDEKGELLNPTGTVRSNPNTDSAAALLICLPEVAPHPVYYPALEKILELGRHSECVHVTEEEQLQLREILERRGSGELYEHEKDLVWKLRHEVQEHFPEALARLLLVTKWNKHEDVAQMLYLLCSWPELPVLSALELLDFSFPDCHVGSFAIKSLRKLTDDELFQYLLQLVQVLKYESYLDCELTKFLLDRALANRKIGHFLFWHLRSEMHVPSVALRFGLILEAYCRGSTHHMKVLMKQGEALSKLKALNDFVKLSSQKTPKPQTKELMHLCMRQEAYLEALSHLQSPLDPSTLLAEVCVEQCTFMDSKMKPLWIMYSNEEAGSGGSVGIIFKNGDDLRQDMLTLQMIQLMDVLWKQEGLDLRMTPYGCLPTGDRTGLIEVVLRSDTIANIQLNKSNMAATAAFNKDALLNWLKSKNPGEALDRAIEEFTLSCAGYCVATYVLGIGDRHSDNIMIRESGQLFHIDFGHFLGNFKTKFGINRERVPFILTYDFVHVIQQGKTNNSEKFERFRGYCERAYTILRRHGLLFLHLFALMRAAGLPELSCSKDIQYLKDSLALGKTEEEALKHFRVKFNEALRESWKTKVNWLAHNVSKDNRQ
T1 sequence (P27986 whole entry partner): as the sequence (P27986 whole entry partner) above

IC50 (PI3Kδ (p110δ/p85α)(h)): 15 nM
IC50 (PI3Kα (p110α/p85α)(h)): 2440 nM
IC50 (PI3Kβ (p110β/p85α)(h)): 8.95 µM
IC50 (PI3Kγ (p120γ)(h)): 819 nM
Compound: CC[C@H](Nc1ncnc2ccc(C#N)cc12)c1nc2cccc(-c3cncnc3)c2c(=O)n1C1CC1 [Example 20, (S)-4-((1-(3-cyclopropyl-4-oxo-5-(pyrimidin-5-yl)-3,4-dihydroquinazolin-2-yl)propyl)amino)quinazoline-6-carbonitrile]
